Consider three compounds from patent publication US3961066A, “6,7-Benzomorphan derivatives” (priority 1973, dated 1976).

Where two headings read alike, the source gives them in different places.

Series [1] can be described thus: Analgesic activity (antagonism of the syndrome produced by intraperitoneal injection of 0.6 % aqueous acetic acid). The format is in vivo, mice. Particulars: for ED50: Mus musculus; for ED50 / analgesic activity compared with morphine: sc; for analgesic activity compared with pentazocin: s.c., result in words; for analgesic activity compared with morphine: mouse, in vivo. The method, then: Note: The test was based on the specific antagonism of the test compound to the typical syndrome produced by intraperitoneal injection of 0.6 % aqueous acetic acid. The syndrome was characterized by intermittent contractions of the abdomen, twisting and turning of the trunk and extension of the hind legs. A group of 5 mice was used for each dose level. The test compound was administered subcutaneously 20 minutes before the injection of acetic acid. […] The ED50 value was calculated according to the Litchfield-Wilcoxon's method.

A short description of series [2]: Physical dependency (abstinence syndrome, body weight decrease after withdrawal following 4 weeks of s.c. administration). Particulars: rats. The format is in vivo, male rats of Wistar strain. Also noted: key to Abstinence syndrome: ++: severe decrease (about 5 % decrease); ++: moderate decrease; +: mild decrease; -: no decrease. As for the experimental part:
Note: Groups of animals of male rats of Wistar strain (body weight, 150 g), each group consisting of 20 male rats, were subcutaneously given the test compound twice a day for 4 consecutive weeks. On the next day after drug withdrawal, the body weight was measured. The symbols have the following meanings: ++, severe decrease (about 5 % decrease); ++, moderate decrease; +, mild decrease; -, no decrease.

The mark [3] stands for this setting: mice, s.c. 20 minutes before the injection of acetic acid, Litchfield-Wilcoxon's method, read-out: ED50.

As for `CC1CN(CCc2ccccc2)C2Cc3ccc(O)cc3C1(C)C2` (stereo not drawn) [2'-hydroxy-2-(β-phenylethyl)-4,5-dimethyl-6,7-benzomorphan], the median effective dose (ED50) in series [1] (setting [3]) was 0.23 mg/kg. The “analgesic activity compared with pentazocin” value in series [1] (mice) was “much more potent analgesic activity than pentazocin”. In series [1], the “analgesic activity compared with morphine” value is recorded as “more potent analgesic activity than morphine”.

On to `CC1CN(CCCC(=O)c2ccc(F)cc2)C2Cc3ccc(O)cc3C1(C)C2` (stereo not drawn) [2'-hydroxy-2-[γ-(p-fluorobenzoyl)-n-propyl]-4,5-dimethyl-6,7-benzomorphan], for which the Abstinence syndrome entry in series [2] (s.c., 40 mg/kg/day for 4 weeks, twice a day, body weight measured on the next day after drug withdrawal) is listed as “-”. The physical dependency entry in series [2] (subcutaneously, everyday for 4 weeks, result in words) is on record as “did not produce any physical dependency”. Moreover, in series [1] (setting [3]), the ED50 worked out at 0.36 mg/kg. Moreover, the “analgesic activity compared with pentazocin” value in series [1] (mice) is on record as “much more potent analgesic activity than pentazocin”. For the same compound, the “analgesic activity compared with morphine” value in series [1] is given as “more potent analgesic activity than morphine”.

Compound `CN1CC[C@]23c4c5ccc(O)c4O[C@H]2[C@@H](O)C=C[C@H]3[C@H]1C5` [Morphine, reference compound] yielded an ED50 in series [1] of 1.2 mg/kg.

By ED50 is commonly meant the dose that gives a 50% effect, or the effect in half of the subjects.
